Results on one molecule are retold here after article PMC11347632 (Scientific Reports, 2024).

Structures are written as SMILES.

This assay concerns the target RPA70 (replication protein A) (Homo sapiens, UniProt P27694). Description: reconstituted RPA-dependent ATR kinase assay with western blot. Type of assay: biochemical. A general note: A western blot detects proteins with antibodies after separation by electrophoresis.

RPA70 (replication protein A), sequence (P15927 whole entry): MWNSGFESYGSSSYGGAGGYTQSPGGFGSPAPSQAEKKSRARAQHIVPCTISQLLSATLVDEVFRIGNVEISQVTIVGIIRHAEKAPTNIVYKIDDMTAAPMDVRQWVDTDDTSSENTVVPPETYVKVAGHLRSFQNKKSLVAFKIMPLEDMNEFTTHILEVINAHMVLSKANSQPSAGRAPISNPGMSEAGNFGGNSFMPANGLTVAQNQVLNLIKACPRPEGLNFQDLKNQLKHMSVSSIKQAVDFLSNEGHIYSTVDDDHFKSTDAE
RPA70 (replication protein A), sequence (P35244 2-121, further chain): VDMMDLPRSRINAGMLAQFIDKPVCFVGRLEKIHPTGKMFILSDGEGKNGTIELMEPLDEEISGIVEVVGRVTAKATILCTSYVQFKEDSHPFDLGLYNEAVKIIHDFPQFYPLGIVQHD
RPA70 (replication protein A), sequence (P27694 whole entry): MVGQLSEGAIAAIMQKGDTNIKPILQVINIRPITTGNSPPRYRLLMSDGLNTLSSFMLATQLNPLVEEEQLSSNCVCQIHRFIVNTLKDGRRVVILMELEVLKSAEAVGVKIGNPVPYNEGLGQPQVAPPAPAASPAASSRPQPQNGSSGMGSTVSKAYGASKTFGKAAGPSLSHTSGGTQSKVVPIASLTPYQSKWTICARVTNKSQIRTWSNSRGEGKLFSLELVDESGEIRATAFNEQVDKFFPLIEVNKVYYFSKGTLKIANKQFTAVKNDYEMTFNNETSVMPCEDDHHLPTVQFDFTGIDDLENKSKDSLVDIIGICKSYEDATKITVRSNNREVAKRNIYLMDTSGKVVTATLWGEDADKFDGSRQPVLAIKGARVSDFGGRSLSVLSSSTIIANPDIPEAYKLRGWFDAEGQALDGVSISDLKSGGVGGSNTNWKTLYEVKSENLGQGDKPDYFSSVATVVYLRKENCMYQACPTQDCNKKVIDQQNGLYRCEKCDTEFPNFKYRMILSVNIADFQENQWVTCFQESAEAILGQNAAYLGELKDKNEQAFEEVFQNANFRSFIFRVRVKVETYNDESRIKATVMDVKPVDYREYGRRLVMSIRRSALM

For `O=C1C=Cc2ccccc2/C1=C/Nc1ccccc1O` [HAMNO, (1Z)-1-[(2-hydroxyanilino)methylidene]naphthalen-2-one], the “reconstituted RPA-dependent ATR kinase assay with western blot” value is “we titrated increasing amounts of HAMNO and PAME into the fully activated ATR reaction”.
